Experimental data: patent US8071558B2, “Application of D-psicose to suppression of abnormal circadian increase in blood glucose level” (Rare Sugar Production Technical Research Laboratories, LLC., priority 2005, dated 2011)
Each block holds one molecule with its values, some of them ahead of it.

How the values were obtained:
[1] = test system: liver; details: in vivo; cited from earlier work
[2] = molecular target: T1, sucrase (Rattus norvegicus, UniProt P23739); experiment: Sucrose administration experiment (inhibition of sucrase in vivo), plasma glucose; details: rats; for Plasma glucose level, 0 min: before sucrose 2 g/kg + test sugar 200 mg/kg; for Plasma glucose level, 30 min / Plasma glucose level, 60 min / Plasma glucose level, 90 min / Plasma glucose level, 120 min / ΔAUC of plasma glucose level: sucrose 2 g/kg + test sugar 200 mg/kg
T1 construct: from tissue; host or cells: small intestine of live male Wistar rats (oral sugar load)
T1 sequence (P23739 whole entry): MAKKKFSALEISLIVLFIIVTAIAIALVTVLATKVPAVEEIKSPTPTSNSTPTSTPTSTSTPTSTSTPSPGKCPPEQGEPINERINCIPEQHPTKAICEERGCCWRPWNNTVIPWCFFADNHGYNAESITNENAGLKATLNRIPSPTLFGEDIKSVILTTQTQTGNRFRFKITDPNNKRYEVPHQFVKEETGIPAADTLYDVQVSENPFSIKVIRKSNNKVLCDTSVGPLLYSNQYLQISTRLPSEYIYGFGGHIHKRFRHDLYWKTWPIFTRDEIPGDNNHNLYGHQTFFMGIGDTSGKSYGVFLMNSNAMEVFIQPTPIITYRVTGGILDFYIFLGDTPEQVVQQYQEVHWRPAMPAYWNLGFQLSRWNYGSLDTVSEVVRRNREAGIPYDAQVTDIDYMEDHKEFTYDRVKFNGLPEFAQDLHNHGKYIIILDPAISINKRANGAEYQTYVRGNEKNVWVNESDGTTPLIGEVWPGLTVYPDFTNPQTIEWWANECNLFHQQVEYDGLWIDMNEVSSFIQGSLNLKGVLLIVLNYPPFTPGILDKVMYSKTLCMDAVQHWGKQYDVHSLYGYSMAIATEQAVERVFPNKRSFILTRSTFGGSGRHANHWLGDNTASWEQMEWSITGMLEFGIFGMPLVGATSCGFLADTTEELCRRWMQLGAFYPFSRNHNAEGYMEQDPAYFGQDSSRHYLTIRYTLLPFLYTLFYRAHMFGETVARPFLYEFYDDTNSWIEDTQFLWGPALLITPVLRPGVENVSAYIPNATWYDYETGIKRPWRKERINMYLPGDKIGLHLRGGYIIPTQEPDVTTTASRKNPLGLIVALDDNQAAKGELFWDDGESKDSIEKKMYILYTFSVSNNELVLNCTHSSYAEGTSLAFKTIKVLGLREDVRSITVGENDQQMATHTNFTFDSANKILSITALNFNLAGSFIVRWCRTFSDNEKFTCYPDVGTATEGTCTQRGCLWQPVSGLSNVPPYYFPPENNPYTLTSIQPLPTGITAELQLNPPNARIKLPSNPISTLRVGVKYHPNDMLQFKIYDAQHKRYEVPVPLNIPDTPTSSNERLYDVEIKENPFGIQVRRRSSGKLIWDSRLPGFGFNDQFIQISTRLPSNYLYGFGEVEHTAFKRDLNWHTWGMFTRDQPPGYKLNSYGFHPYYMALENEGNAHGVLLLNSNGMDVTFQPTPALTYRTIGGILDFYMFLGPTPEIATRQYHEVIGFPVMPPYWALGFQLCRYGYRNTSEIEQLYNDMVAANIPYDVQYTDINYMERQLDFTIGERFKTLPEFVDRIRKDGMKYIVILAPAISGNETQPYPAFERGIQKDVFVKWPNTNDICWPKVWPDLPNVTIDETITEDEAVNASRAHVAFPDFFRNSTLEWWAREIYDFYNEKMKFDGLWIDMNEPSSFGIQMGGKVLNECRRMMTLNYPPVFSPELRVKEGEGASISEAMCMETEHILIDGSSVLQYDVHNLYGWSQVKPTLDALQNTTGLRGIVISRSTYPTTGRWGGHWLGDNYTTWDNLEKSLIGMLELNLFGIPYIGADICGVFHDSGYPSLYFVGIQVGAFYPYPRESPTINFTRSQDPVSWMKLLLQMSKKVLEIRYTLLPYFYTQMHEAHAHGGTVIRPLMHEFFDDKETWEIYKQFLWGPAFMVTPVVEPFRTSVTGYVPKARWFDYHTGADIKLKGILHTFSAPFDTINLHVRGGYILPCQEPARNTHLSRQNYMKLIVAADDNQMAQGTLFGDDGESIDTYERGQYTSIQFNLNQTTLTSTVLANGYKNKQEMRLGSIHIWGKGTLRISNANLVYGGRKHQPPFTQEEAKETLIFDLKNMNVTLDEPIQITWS
Description: Sucrose 2 g/kg+L-arabinose 200 mg/kg (SA)
Sucrose 2 g/kg+D-xylose 200 mg/kg (SX)
Sucrose 2 g/kg+D-fructose 200 mg/kg (SF)
Sucrose 2 g/kg+D-psicose 200 mg/kg (SP)
Sucrose 2 g/kg+(fructose 150 mg/kg+psicose 50 mg/kg) (SFP)

[3] = test system: Male Wistar rats; experiment: Soluble starch administration experiment, plasma glucose; format: in vivo, rat; details: for Plasma glucose level, 0 min: before soluble starch 2 g/kg + test sugar 200 mg/kg; for action to suppress the increase of blood glucose level: given simultaneously with soluble starch (experiment 3); for Plasma glucose level, 30 min / Plasma glucose level, 60 min / Plasma glucose level, 90 min / Plasma glucose level, 120 min / ΔAUC of plasma glucose level: soluble starch 2 g/kg + test sugar 200 mg/kg
Description: (§1) Thirty-six male Wistar rats of age 6 months are divided into 6 groups. The following sugars were given to the rats in the individual groups after 12-hour fasting. Before the administration and 30, 60, 90, 120 and 180 minutes after the administration, blood is drawn from the tail vein, to assay plasma glucose and insulin concentration.
1. Soluble starch 2 g/kg (SS)
2. Soluble starch 2 g/kg+L-arabinose 200 mg/kg (SSA)
3. Soluble starch 2 g/kg+D-xylose 200 mg/kg (SSX)
4. Soluble starch 2 g/kg+D-fructose 200 mg/kg (SSF)
5. Soluble starch 2 g/kg+D-psicose 200 mg/kg (SSP)
6. Soluble starch 2 g/kg+(fructose 150 mg/kg+psicose 50 mg/kg) (SSFP)
(§2) Before the administration and 30, 60, 90, 120 and 180 minutes after the administration, plasma glucose level was assayed. The plasma glucose level 180 minutes later was used to calculate the area under the curve of plasma glucose level (ΔAUC).

[4] = test system: maltase; experiment: Maltose administration experiment (inhibition of maltase in vivo), plasma glucose; set-up: species or system rat; details: rats; for Plasma glucose level, 0 min: before maltose 2 g/kg + test sugar 200 mg/kg; for action to suppress the increase of blood glucose level: given simultaneously with maltose (experiment 2); for Plasma glucose level, 30 min / Plasma glucose level, 60 min / Plasma glucose level, 90 min / Plasma glucose level, 120 min / ΔAUC of plasma glucose level: maltose 2 g/kg + test sugar 200 mg/kg
Description: as §1
2. Maltose 2 g/kg+L-arabinose 200 mg/kg (MA)
3. Maltose 2 g/kg+D-xylose 200 mg/kg (MX)
4. Maltose 2 g/kg+D-fructose 200 mg/kg (MF)
5. Maltose 2 g/kg+D-psicose 200 mg/kg (MP)
6. Maltose 2 g/kg+(fructose 150 mg/kg+psicose 50 mg/kg) (MFP)
as §2

[5] = test system: diabetic rats (fatty Zucker rats); details: cited from earlier work
[6] = test system: Male Wistar rats; experiment: Oral glucose tolerance test: influence of D-psicose on the reaction of increasing blood glucose; format: in vivo, rat; details: for blood glucose level compared with single administration of D-glucose: minutes after administration; for increase of the blood glucose level: oral D-glucose 2 g/kg with test sugar 0.32 g/kg (16% of D-glucose) simultaneously
Description: Male Wistar rats of age 6 months were fed ad libitum under a condition that the bright cycle was at a temperature of 25° C. and a humidity of 50 to 70% from 8:00 am to 20:00 pm, for preliminary feeding for one week. On the day before the experiment, the rats were fasted for 12 hours and subsequently orally given D-glucose at 2 g/kg (in the form of 50% glucose solution) using a probe. Blood was drawn before the dosing and 30, 60, 90, 120, 150 and 180 minutes after the dosing. Blood glucose level was measured with a blood glucose meter. Alternatively, D-fructose or D-psicose at 0.32 g/kg (at 16% of D-glucose) was simultaneously given with D-glucose at 2 g/kg. In the same manner, blood glucose level was measured. Based on the resulting blood glucose levels, the area under the curve of blood glucose level (ΔAUC) was calculated.

[7] = test system: pancreatic island cells; details: in vitro; cited from earlier work
[8] = test system: Male Wistar rats; experiment: Influence of D-psicose diet on liver weight and composition (16-week feeding); format: in vivo, rat; details: 16 weeks
Description: Twenty-four male Wistar rats of age 3 weeks were fed ad libitum under a condition that the bright cycle was at a temperature of 25° C. and a humidity of 50 to 70% from 8:00 am to 20:00 pm, for preliminary feeding for one week. Subsequently, the rats were divided into 4 groups, each group consisting of 6 rats. The groups were defined a high fat/D-psicose diet (HF-P) group; a high fat/cellulose diet (HF-C) group; a low fat/D-psicose diet (LF-P) group; and a low fat/cellulose diet (LF-C) group. 20% beef fat and 5% soybean oil were used to prepare the high fat diets. 5% soybean oil was used to prepare the low fat diets. 5% D-psicose or cellulose was added to the individual diets. These rats were fed these experimental diets and water ad libitum for 16 weeks. On the last day of the experiment, the rats were decapitated and sacrificed to death, from which liver, flounder muscle and intraperitoneal fat tissues were resected. Glycogen, neutral fat and protein were assayed in the liver, while glycogen content was assayed in the flounder muscle. [table]

[9] = test system: Male Wistar rats; experiment: Intra-day variation of plasma glucose concentration in rats fed 5% sugar diets; format: in vivo, rat; details: 5% in diet, fed twice daily for 8 weeks
Source text: Forty male Wistar rats of age 3 weeks were preliminarily fed for one week and then divided into 4 groups. Then, a control diet (AIN-76A), and the control diet with addition of 5% D-fructose, the control diet with addition of 5% D-psicose, and the control diet with addition of 5% psico-rare sugar were fed to the rats, twice daily (at 8 to 9 am and at 20 to 21 pm) ad libitum for 8 weeks. At 2 am, 6 am, 10 am, 14 pm, 18 pm and 22 pm on the week 7 or 8 of the feeding, blood was drawn from the tail veins of the rats. Plasma was separated from the blood to assay glucose concentration.

[10] = test system: liver; details: in vivo; cited from earlier work; remark: listed apart in the source
[11] = test system: α-glucosidase; details: in vitro; cited from earlier work
[12] = test system: liver; details: D-psicose added up to 20% of the weight of the feeds; cited from earlier work
[13] = D-glucose 2 g/kg + 0.32 g/kg test sugar

SMILES: O=C(CO)[C@@H](O)[C@@H](O)[C@H](O)CO [D-tagatose]
histological change of liver [1]: never involved any histological change of liver

Plasma glucose level, 0 min [2]: 102 mg/dL
Plasma glucose level, 30 min [2]: 123 ± 11 b mg/dl
Plasma glucose level, 60 min [2]: 126 ± 12 b mg/dl
Plasma glucose level, 90 min [2]: 130 ± 13 b mg/dl
Plasma glucose level, 120 min [2]: 137 ± 16 mg/dL
ΔAUC of plasma glucose level [2]: 2646 min^− mg/dl
SMILES: O=C[C@H](O)[C@@H](O)[C@H](O)CO [D-xylose]
Plasma glucose level, 0 min [3]: 99 ± 10 mg/dL
action to suppress the increase of blood glucose level [3]: scarcely suppressed
Plasma glucose level, 30 min [3]: 141 ± 8 mg/dL
Plasma glucose level, 60 min [3]: 135 ± 12 mg/dL
Plasma glucose level, 90 min [3]: 138 ± 16 mg/dL
Plasma glucose level, 120 min [3]: 131 ± 12 mg/dL
ΔAUC of plasma glucose level [3]: 4040 min^− mg/dl
Plasma glucose level, 0 min [4]: 86 ± 8 mg/dL
action to suppress the increase of blood glucose level [4]: scarcely suppressed
Plasma glucose level, 30 min [4]: 146 ± 14 mg/dL
Plasma glucose level, 60 min [4]: 172 ± 12 a mg/dl
Plasma glucose level, 90 min [4]: 166 ± 20 mg/dL
Plasma glucose level, 120 min [4]: 150 ± 19 mg/dL
ΔAUC of plasma glucose level [4]: 7765 min^− mg/dl

Plasma glucose level, 0 min [2]: 93 mg/dL
Plasma glucose level, 30 min [2]: 139 ± 21 ab mg/dl
Plasma glucose level, 60 min [2]: 142 ± 21 ab mg/dl
Plasma glucose level, 90 min [2]: 139 ± 14 ab mg/dl
Plasma glucose level, 120 min [2]: 142 ± 18 mg/dL
ΔAUC of plasma glucose level [2]: 4978 min^− mg/dl
SMILES: O=C[C@H](O)[C@@H](O)[C@@H](O)CO [L-arabinose]
Plasma glucose level, 0 min [3]: 97 ± 9 mg/dL
action to suppress the increase of blood glucose level [3]: scarcely suppressed
Plasma glucose level, 30 min [3]: 135 ± 20 mg/dL
Plasma glucose level, 60 min [3]: 129 ± 22 mg/dL
Plasma glucose level, 90 min [3]: 128 ± 22 mg/dL
Plasma glucose level, 120 min [3]: 119 ± 15 mg/dL
ΔAUC of plasma glucose level [3]: 3370 min^− mg/dl
Plasma glucose level, 0 min [4]: 89 ± 7 mg/dL
action to suppress the increase of blood glucose level [4]: scarcely suppressed
Plasma glucose level, 30 min [4]: 139 ± 16 mg/dL
Plasma glucose level, 60 min [4]: 157 ± 22 ab mg/dl
Plasma glucose level, 90 min [4]: 149 ± 21 mg/dL
Plasma glucose level, 120 min [4]: 138 ± 22 mg/dL
ΔAUC of plasma glucose level [4]: 6087 min^− mg/dl

Plasma glucose level, 0 min [2]: 97 mg/dL
Plasma glucose level, 30 min [2]: 134 ± 13 ab mg/dl
Plasma glucose level, 60 min [2]: 148 ± 12 ab mg/dl
Plasma glucose level, 90 min [2]: 147 ± 9 ab mg/dl
Plasma glucose level, 120 min [2]: 141 ± 7 mg/dL
ΔAUC of plasma glucose level [2]: 4732 min^− mg/dl
SMILES: O=C(CO)[C@@H](O)[C@H](O)[C@H](O)CO [D-fructose]
Plasma glucose level, 0 min [3]: 92 ± 4 mg/dL
Plasma glucose level, 30 min [3]: 130 ± 15 mg/dL
Plasma glucose level, 60 min [3]: 137 ± 21 mg/dL
Plasma glucose level, 90 min [3]: 132 ± 13 mg/dL
Plasma glucose level, 120 min [3]: 130 ± 13 mg/dL
ΔAUC of plasma glucose level [3]: 4243 min^− mg/dl
reaction of increasing blood glucose via D-glucose and maltodextrin [5]: suppressed
Plasma glucose level, 0 min [4]: 81 ± 10 mg/dL
Plasma glucose level, 30 min [4]: 139 ± 15 mg/dL
Plasma glucose level, 60 min [4]: 156 ± 20 ab mg/dl
Plasma glucose level, 90 min [4]: 152 ± 10 mg/dL
Plasma glucose level, 120 min [4]: 142 ± 12 mg/dL
ΔAUC of plasma glucose level [4]: 7031 min^− mg/dl
ΔAUC of blood glucose level compared with single D-glucose administration [6, 13]: significantly low
blood glucose level compared with single administration of D-glucose [6, 13]: significantly low in 90 and 120 minutes
increase of the blood glucose level [6]: suppressed

SMILES: O=C(CO)[C@H](O)[C@H](O)[C@H](O)CO [D-psicose]
insulin secretion from pancreatic island cells [7]: promoted
Plasma glucose level, 0 min [2]: 89 mg/dL
increase of blood glucose level up to 60 minutes after the administration, compared with sucrose alone ([2]; given simultaneously with sucrose): suppressed
Plasma glucose level, 30 min [2]: 128 ± 12 ab mg/dl
Plasma glucose level, 60 min [2]: 139 ± 13 ab mg/dl
Plasma glucose level, 90 min [2]: 150 ± 20 a mg/dl
Plasma glucose level, 120 min [2]: 143 ± 28 mg/dL
ΔAUC of plasma glucose level [2]: 5339 min^− mg/dl
Plasma glucose level, 0 min [3]: 91 ± 10 mg/dL
action to suppress the increase of blood glucose level [3]: the effect was low
Plasma glucose level, 30 min [3]: 128 ± 12 mg/dL
Plasma glucose level, 60 min [3]: 123 ± 21 mg/dL
Plasma glucose level, 90 min [3]: 121 ± 17 mg/dL
Plasma glucose level, 120 min [3]: 122 ± 16 mg/dL
ΔAUC of plasma glucose level [3]: 3344 min^− mg/dl
liver weight, effect of addition of D-psicose ([8]; 5% in diet, irrespective of the fat content, vs cellulose diet): increased
hepatic glycogen content, effect of addition of D-psicose ([8]; 5% in diet, vs cellulose diet): tended to increase
protein content per liver, effect of addition of D-psicose ([8]; 5% in diet, vs cellulose diet): significantly increased
weight of intraperitoneal fat tissues, effect of addition of D-psicose ([8]; 5% in diet, vs cellulose diet): no influence
Flounder muscle weight ([8]; high fat diet + 5% D-psicose): 210 ± 8 mg
Liver weight ([8]; high fat diet + 5% D-psicose): 9.5 ± 0.5 g
Weight of intraperitoneal fat tissues ([8]; high fat diet + 5% D-psicose): 27 ± 2 g
Flounder muscle weight ([8]; low fat diet + 5% D-psicose): 209 ± 10 mg
Liver weight ([8]; low fat diet + 5% D-psicose): 13.2 ± 0.3 g
Weight of intraperitoneal fat tissues ([8]; low fat diet + 5% D-psicose): 23 ± 1 g
increment of the area under the curve of plasma glucose concentration (ΔAUC) based on 8 am, compared with control and D-fructose groups [9]: significantly small
plasma glucose concentration compared with the control group and the D-fructose group ([9]; week 7 or 8): low throughout the day
toxicity causing the deterioration of the hepatic function [10]: no toxicity
α-glucosidase inhibition [11]: inhibits
Plasma glucose level, 0 min [4]: 82 ± 8 mg/dL
action to suppress the increase of blood glucose level [4]: the effect was low
Plasma glucose level, 30 min [4]: 125 ± 21 mg/dL
Plasma glucose level, 60 min [4]: 147 ± 16 b mg/dl
Plasma glucose level, 90 min [4]: 146 ± 14 mg/dL
Plasma glucose level, 120 min [4]: 132 ± 13 mg/dL
ΔAUC of plasma glucose level [4]: 5887 min^− mg/dl
increasing rate of blood glucose level compared with D-fructose [6, 13]: likely reduced
ΔAUC of blood glucose level compared with single D-glucose administration [6, 13]: significantly low
blood glucose level compared with single administration of D-glucose [6, 13]: significantly low in 60, 90 and 120 minutes
increase of the blood glucose level [6]: suppressed
liver weight per body weight [12]: tended to increase
